Data from ChEMBL document CHEMBL1131837, “Synthesis of new (benzimidazolyl)piperazines with affinity for the 5-HT1A receptor via Pd(0) amination of bromobenzimidazoles” (Bioorg Med Chem Lett, 1999).

Legend:
[1] = target: T1, 5-hydroxytryptamine receptor 1A (Rattus norvegicus, UniProt P19327); assay: In vitro binding affinity towards 5-hydroxytryptamine 1A receptor was determined using [3H]8-OH-DPAT as radioligand in rat cerebral cortex membranes; […]; type: cell membranes
T1 sequence (P19327 whole entry): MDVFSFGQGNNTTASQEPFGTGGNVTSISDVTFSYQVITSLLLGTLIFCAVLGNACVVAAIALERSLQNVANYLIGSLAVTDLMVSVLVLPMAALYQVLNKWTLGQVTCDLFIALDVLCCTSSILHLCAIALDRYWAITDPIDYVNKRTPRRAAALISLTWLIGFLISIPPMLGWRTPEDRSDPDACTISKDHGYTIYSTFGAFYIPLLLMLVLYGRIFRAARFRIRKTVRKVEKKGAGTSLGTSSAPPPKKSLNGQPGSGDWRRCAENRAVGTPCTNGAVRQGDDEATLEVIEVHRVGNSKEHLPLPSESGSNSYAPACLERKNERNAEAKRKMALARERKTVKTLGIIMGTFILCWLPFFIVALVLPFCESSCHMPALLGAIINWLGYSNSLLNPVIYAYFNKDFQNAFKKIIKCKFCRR

[2] = target: T1, 5-hydroxytryptamine receptor 1A; assay: In vitro binding affinity towards 5-hydroxytryptamine 1A receptor was determined using [3H]8-OH-DPAT as radioligand in rat cerebral cortex membranes; type: cell membranes, Membrane

Structure (SMILES) | Ki [1] | Ki [2]
c1ccc(C(c2ccccc2)(c2ccccc2)n2cnc3c(N4CCNCC4)cccc32)cc1 | Not Active | 
CN1CCN(c2cccc3[nH]cnc23)CC1 |  | 4.72 nM
CN1CCN(c2cccc3c2ncn3C(c2ccccc2)(c2ccccc2)c2ccccc2)CC1 | Not Active | 
O=C1C2CCCN2C(=O)N1CCCCN1CCN(c2cccc3[nH]cnc23)CC1 (centres undefined) |  | 1.21 nM
